Laboratory results: patent publication US8663715B2, “Compositions, products, therapeutic uses and procedures for the production and/or crystallization of extracts of Encelia canescens LAM (coronilla de fraile)” (Naturaleza Y Fe Ldta, priority 2010, dated 2014)

Key:
CF-1 strain mice [1] = experiment: Oral analgesia: abdominal twisting induced by acetic acid; assay type: in vivo; details: extract 200 mg/kg in arabic gum, dose of reference drug not given
[2] = Antioxidant evaluation in system lacase-ABTS; assay type: biochemical
Description: In addition, the antioxidant capacity was analyzed using the system lacase-ABTS (2,2-azino-bis-3-ethyl-benzo-thiazolin-6-sulfonic) that allows to establish in a comparative way the oxidation of substrates, denoting of indirect way the antioxidant capacity of a sample (Table 7).

CF-1 strain mice [3] = experiment: Topical analgesic activity: tail formalin test; assay type: in vivo; details: topical 5% solution; from medians of treated and control group
Description: The in vivo biological study evaluated the toxicity, oral analgesic activity and topical analgesic activity in the global methanolic extract of Encelia canescens Lam. For these assessments not inbred males CF-1 strain mice were used, whose weight varied between 14 to 20 g and age between 30 to 35 days. In all evaluations, animals were kept in fasting for 12 hours prior to each test with water ad libitum at room temperature.
Each test was carried out with 10 animals, leaving 2 of them as controls, adding these to a “pool” of animal controls, in total were a group of 16 control animals. At the end of the tests, the animals were sacrificed by cervical dislocation, a painless method.
For all tests, the pharmacological effect was calculated using the values of the median, as a measure of central tendency of the data and standard error of the median (SEM) as measure of dispersion.
Results were analyzed by the non-parametric statistical method of Wilcoxon for independent data (Hollander and Wolfe, 1973), considering significant if its p≦0.05.
This test is intended to determine the analgesic activity via topical of global methanol extract (EMG) of Encella canescens Lam. […] Then, the time of licking which makes the mouse at the site of injection for five minutes, was counted. […] The topical analgesic activity was calculated using the following formula. % D=(Cm/Cc)×100 where: % D: percentage of pain. […]

With `COc1ccc2cc([C@H](C)C(=O)O)ccc2c1` [Naproxen Sodium, Naproxen sodium] as the compound, how does the “% E percentage of analgesic effect (with median, final)” value (CF-1 strain mice [1]) read?
Its value is 70%.

For `Cc1c(C)c2c(c(C)c1O)CCC(C)(C(=O)O)O2` (stereo not drawn) [Trolox ®, Trolox], which “Antioxidant activity IC50” value [2] is on record?
Its value is 1970 µg/mL.

Which “% AAT percentage of the topical analgesic activity (% A 1)” value (CF-1 strain mice [3]) does the source give for `CC(C)Cc1ccc(C(C)C(=O)O)cc1` (stereo not drawn) [Ibuprofen] here?
Its value is 76.53%.
